# Measurements as given in article PMC8185074, “Anchor extension: a structure-guided approach to design cyclic peptides targeting enzyme active sites” (Nature Communications, 2021).
# Peptide text beside a SMILES is read from it.
# Tests used:
# Format in all cases: biochemical
# HDAC1 = target: T1, HDAC1 (Homo sapiens, UniProt Q13547); assay: HDAC1 inhibition, full IC50 measurement (Reaction Biology; fluorogenic p53 peptide RHKK(Ac)AMC); details: t1/t2 replicates
# T1 construct: purchased Reaction Biology Corporation (assay run by the CRO)
# In short: (§1)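 The reaction was a 1 h, 30 °C incubation of enzyme, acoustically added peptide and 50 μM p53-derived AMC substrate in pH 8.0 Tris buffer with NaCl, KCl, MgCl2, 1 mg/ml BSA and 1% DMSO. Duplicate values were averaged.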
# HDAC2 = target: T2, HDAC2 (Homo sapiens, UniProt Q92769); assay: HDAC2 inhibition, full IC50 measurement (Reaction Biology; fluorogenic p53 peptide RHKK(Ac)AMC)
# T2 construct: purchased Reaction Biology Corporation (assay run by the CRO)
# In short: as §1
# HDAC8 = target: T3, HDAC8 (Homo sapiens, UniProt Q9BY41); assay: HDAC8 inhibition, full IC50 measurement (Reaction Biology; fluorogenic p53 peptide RHKK(Ac)AMC); details: t1/t2 replicates
# T3 construct: purchased Reaction Biology Corporation (assay run by the CRO)
# T3 sequence (Q9BY41 1-377): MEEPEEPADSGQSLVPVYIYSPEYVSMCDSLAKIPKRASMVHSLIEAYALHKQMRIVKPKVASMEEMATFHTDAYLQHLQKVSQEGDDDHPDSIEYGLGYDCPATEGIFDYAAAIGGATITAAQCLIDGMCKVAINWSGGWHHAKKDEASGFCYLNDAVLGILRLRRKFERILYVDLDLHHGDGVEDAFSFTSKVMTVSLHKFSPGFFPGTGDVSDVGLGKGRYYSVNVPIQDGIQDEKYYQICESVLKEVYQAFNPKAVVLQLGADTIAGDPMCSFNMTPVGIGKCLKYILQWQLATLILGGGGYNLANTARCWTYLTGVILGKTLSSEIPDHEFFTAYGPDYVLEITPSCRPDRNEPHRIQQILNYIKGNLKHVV
# In short: as §1
# [1] = peptide conc. 1.00E-05 M, listed as des2.2.0_t1
# [2] = peptide conc. 1.00E-05 M, listed as des2.2.0_t2
# [3] = peptide conc. 1.11E-06 M, listed as des2.2.0_t1
# [4] = peptide conc. 1.11E-06 M, listed as des2.2.0_t2
# [5] = peptide conc. 1.23E-07 M, listed as des2.2.0_t1
# [6] = peptide conc. 1.23E-07 M, listed as des2.2.0_t2
# [7] = peptide conc. 1.37E-08 M, listed as des2.2.0_t1
# [8] = peptide conc. 1.37E-08 M, listed as des2.2.0_t2
# [9] = peptide conc. 1.52E-09 M, listed as des2.2.0_t1
# [10] = peptide conc. 1.52E-09 M, listed as des2.2.0_t2
# [11] = peptide conc. 3.33E-06 M, listed as des2.2.0_t1
# [12] = peptide conc. 3.33E-06 M, listed as des2.2.0_t2
# [13] = peptide conc. 3.70E-07 M, listed as des2.2.0_t1
# [14] = peptide conc. 3.70E-07 M, listed as des2.2.0_t2
# [15] = peptide conc. 4.12E-08 M, listed as des2.2.0_t1
# [16] = peptide conc. 4.12E-08 M, listed as des2.2.0_t2
# [17] = peptide conc. 4.57E-09 M, listed as des2.2.0_t1
# [18] = peptide conc. 4.57E-09 M, listed as des2.2.0_t2
# [19] = peptide conc. 5.08E-10 M, listed as des2.2.0_t1
# [20] = peptide conc. 5.08E-10 M, listed as des2.2.0_t2
# T1 sequence (Q13547 whole entry): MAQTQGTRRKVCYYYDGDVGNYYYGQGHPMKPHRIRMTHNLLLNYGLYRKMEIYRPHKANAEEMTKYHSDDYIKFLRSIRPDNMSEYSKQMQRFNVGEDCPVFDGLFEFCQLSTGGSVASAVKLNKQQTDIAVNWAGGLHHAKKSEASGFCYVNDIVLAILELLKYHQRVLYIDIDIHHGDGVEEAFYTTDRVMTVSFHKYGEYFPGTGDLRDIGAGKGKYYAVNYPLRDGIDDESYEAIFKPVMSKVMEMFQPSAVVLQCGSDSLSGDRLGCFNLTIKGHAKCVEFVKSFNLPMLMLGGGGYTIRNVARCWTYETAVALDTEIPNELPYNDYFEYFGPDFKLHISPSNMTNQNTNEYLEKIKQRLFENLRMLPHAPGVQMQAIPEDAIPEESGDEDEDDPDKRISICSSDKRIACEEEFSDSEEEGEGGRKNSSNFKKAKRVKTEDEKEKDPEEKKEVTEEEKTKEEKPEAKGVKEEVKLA
# T2 sequence (Q92769 whole entry): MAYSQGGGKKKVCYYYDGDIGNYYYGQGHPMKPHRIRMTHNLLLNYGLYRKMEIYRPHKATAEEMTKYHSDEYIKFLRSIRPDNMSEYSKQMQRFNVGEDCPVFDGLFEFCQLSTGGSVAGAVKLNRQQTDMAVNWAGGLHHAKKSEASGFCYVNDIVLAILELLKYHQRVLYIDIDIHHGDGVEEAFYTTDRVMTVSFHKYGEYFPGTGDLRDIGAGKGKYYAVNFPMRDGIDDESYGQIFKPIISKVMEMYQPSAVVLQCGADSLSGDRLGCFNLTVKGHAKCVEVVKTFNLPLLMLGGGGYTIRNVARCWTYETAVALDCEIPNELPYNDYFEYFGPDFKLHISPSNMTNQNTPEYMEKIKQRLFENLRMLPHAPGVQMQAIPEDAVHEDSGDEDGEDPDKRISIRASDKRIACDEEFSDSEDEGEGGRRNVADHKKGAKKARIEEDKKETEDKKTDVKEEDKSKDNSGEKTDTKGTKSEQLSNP
smiles,measurement,setting,value
"CC(C)C[C@H]1NC(=O)[C@H](Cc2c[nH]c3ccccc23)NC(=O)[C@H](CCCCCS)NC(=O)[C@@H](Cc2ccc(O)cc2)NC(=O)[C@@H](C(C)C)NC(=O)[C@H](Cc2c[nH]cn2)NC(=O)CNC(=O)CNC(=O)[C@@H](CO)NC1=O [des2.2.0, SHA-Trp-dLeu-dSer-Gly-Gly-His-dVal-dTyr] (HELM PEPTIDE1{G.G.H.[dV].[dY].[O=C([C@H](CCCCCS)N[*:1])[*:2]].W.[dL].[dS]}$PEPTIDE1,PEPTIDE1,1:R1-9:R2$$$V2.0)",HDAC1 activity raw data (signal),HDAC1; [1],393754
same,HDAC1 activity raw data (signal),HDAC1; [2],398456
same,HDAC1 activity raw data (signal),HDAC1; [3],771529
same,HDAC1 activity raw data (signal),HDAC1; [4],714587
same,HDAC1 activity raw data (signal),HDAC1; [5],815475
same,HDAC1 activity raw data (signal),HDAC1; [6],811874
same,HDAC1 activity raw data (signal),HDAC1; [7],879707
same,HDAC1 activity raw data (signal),HDAC1; [8],762845
same,HDAC1 activity raw data (signal),HDAC1; [9],835131
same,HDAC1 activity raw data (signal),HDAC1; [10],788807
same,HDAC1 activity raw data (signal),HDAC1; [11],631956
same,HDAC1 activity raw data (signal),HDAC1; [12],567009
same,HDAC1 activity raw data (signal),HDAC1; [13],777508
same,HDAC1 activity raw data (signal),HDAC1; [14],771678
same,HDAC1 activity raw data (signal),HDAC1; [15],776525
same,HDAC1 activity raw data (signal),HDAC1; [16],821518
same,HDAC1 activity raw data (signal),HDAC1; [17],820973
same,HDAC1 activity raw data (signal),HDAC1; [18],805068
same,HDAC1 activity raw data (signal),HDAC1; [19],825935
same,HDAC1 activity raw data (signal),HDAC1; [20],859992
same,HDAC2 activity raw data (signal),"HDAC2; Conc. 1.00E-05 M, t1",686926
same,HDAC2 activity raw data (signal),"HDAC2; Conc. 1.00E-05 M, t2",755168
same,HDAC2 activity raw data (signal),"HDAC2; Conc. 1.11E-06 M, t1",808545
same,HDAC2 activity raw data (signal),"HDAC2; Conc. 1.11E-06 M, t2",1100762
same,HDAC2 activity raw data (signal),"HDAC2; Conc. 1.23E-07 M, t1",837329
same,HDAC2 activity raw data (signal),"HDAC2; Conc. 1.23E-07 M, t2",1005687
same,HDAC2 activity raw data (signal),"HDAC2; Conc. 1.37E-08 M, t1",715440
same,HDAC2 activity raw data (signal),"HDAC2; Conc. 1.37E-08 M, t2",821926
same,HDAC2 activity raw data (signal),"HDAC2; Conc. 1.52E-09 M, t1",554743
same,HDAC2 activity raw data (signal),"HDAC2; Conc. 1.52E-09 M, t2",656599
same,HDAC2 activity raw data (signal),"HDAC2; Conc. 3.33E-06 M, t1",690169
same,HDAC2 activity raw data (signal),"HDAC2; Conc. 3.33E-06 M, t2",996724
same,HDAC2 activity raw data (signal),"HDAC2; Conc. 3.70E-07 M, t1",822571
same,HDAC2 activity raw data (signal),"HDAC2; Conc. 3.70E-07 M, t2",1061380
same,HDAC2 activity raw data (signal),"HDAC2; Conc. 4.12E-08 M, t1",840443
same,HDAC2 activity raw data (signal),"HDAC2; Conc. 4.12E-08 M, t2",955487
same,HDAC2 activity raw data (signal),"HDAC2; Conc. 4.57E-09 M, t1",679123
same,HDAC2 activity raw data (signal),"HDAC2; Conc. 4.57E-09 M, t2",728514
same,HDAC2 activity raw data (signal),"HDAC2; Conc. 5.08E-10 M, t1",632244
same,HDAC2 activity raw data (signal),"HDAC2; Conc. 5.08E-10 M, t2",668167
same,HDAC8 activity raw data (signal),HDAC8; [1],365553
same,HDAC8 activity raw data (signal),HDAC8; [2],330727
same,HDAC8 activity raw data (signal),HDAC8; [3],850929
same,HDAC8 activity raw data (signal),HDAC8; [4],824009
same,HDAC8 activity raw data (signal),HDAC8; [5],979654
same,HDAC8 activity raw data (signal),HDAC8; [6],1006503
same,HDAC8 activity raw data (signal),HDAC8; [7],1072008
same,HDAC8 activity raw data (signal),HDAC8; [8],1101244
same,HDAC8 activity raw data (signal),HDAC8; [9],927307
same,HDAC8 activity raw data (signal),HDAC8; [10],984830
same,HDAC8 activity raw data (signal),HDAC8; [11],572630
same,HDAC8 activity raw data (signal),HDAC8; [12],528648
same,HDAC8 activity raw data (signal),HDAC8; [13],865883
same,HDAC8 activity raw data (signal),HDAC8; [14],851036
same,HDAC8 activity raw data (signal),HDAC8; [15],959123
same,HDAC8 activity raw data (signal),HDAC8; [16],1003485
same,HDAC8 activity raw data (signal),HDAC8; [17],938538
same,HDAC8 activity raw data (signal),HDAC8; [18],927098
same,HDAC8 activity raw data (signal),HDAC8; [19],862623
same,HDAC8 activity raw data (signal),HDAC8; [20],898356
